The values that follow come from publication PMC8065987, “Identification of Anti-Inflammatory and Anti-Proliferative Neolignanamides from Warburgia ugandensis Employing Multi-Target Affinity Ultrafiltration and LC-MS” (Pharmaceuticals, 2021).

Read-outs that look alike come from different tables or passages of the source.

One series addresses T1, 5-LOX (Homo sapiens, UniProt P09917).
T1 construct: purchased Cayman Chemical Co., Ltd. (Ann Arbor, MI, USA)
T1 sequence (P09917 1-674): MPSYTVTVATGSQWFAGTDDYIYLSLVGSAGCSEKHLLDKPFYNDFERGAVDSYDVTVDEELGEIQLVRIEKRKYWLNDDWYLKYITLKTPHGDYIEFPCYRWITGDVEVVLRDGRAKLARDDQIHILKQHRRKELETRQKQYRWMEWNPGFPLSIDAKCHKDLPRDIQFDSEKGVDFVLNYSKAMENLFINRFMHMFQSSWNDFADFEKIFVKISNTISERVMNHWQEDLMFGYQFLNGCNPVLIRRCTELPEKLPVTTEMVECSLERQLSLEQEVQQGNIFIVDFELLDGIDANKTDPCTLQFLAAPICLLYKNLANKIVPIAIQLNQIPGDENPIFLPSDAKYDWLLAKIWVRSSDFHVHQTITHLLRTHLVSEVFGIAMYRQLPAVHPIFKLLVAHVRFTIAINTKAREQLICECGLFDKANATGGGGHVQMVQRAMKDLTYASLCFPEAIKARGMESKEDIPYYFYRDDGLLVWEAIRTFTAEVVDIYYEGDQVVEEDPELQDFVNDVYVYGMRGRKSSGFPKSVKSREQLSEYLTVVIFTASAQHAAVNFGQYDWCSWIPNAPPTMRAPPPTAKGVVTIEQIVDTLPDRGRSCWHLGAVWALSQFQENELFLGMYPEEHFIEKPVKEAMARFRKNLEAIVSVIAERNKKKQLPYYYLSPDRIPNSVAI
The series is described as follows: Affinity ultrafiltration HPLC-MS/MS (AUF-HPLC-MS/MS) of WE-P with 5-LOX. The following applies: relative binding strength = Aactive/Asample × 100%; peak in WE-P; n = 3. As for the experimental part: (§1) The relative binding strength (RBS) was employed to compare the variation of the correlated peak areas in the AUF-HPLC-UV chromatograms before and after incubation with enzymes to evaluate the affinity binding abilities between potential ligands and target enzymes. The RBS formula is expressed as: RBS = (Aactive/Asample) × 100%, where the Aactive represents the peak areas obtained from the WE-P samples incubated with COX-2, 5-LOX, Top I or Top II, respectively; the Asample represents the peak areas obtained from WE-P samples without ultrafiltration. […] Namely, the special binding capacities of peak 2 with COX-2, 5-LOX, Top I and Top II might be stronger than that of peak 1. […] Therefore, it could be preliminarily estimated that peak 1 and peak 2 were the main bioactive components in WE-P which were closely related to its anti-inflammatory and anti-proliferative activities. These compounds were then identified based on their MS/MS data, related references and NMR or UPLC-QTOF-MS/MS data of isolated compounds, and the results are shown in Table 2.
(§2) Affinity ultrafiltration screening was slightly modified and carried out according to some previous studies. Firstly, approximately 100 µL of WE-P (10.0 mg/mL) were incubated with 10 µL of enzymes (2 U, COX-2, 5-LOX, Top I or Top II), and 90 µL of Tris-HCl (pH = 7.8) at 37 °C in the darkness for 1 h. […]

Another series relates to Top I. As to the kind of experiment: Affinity ultrafiltration HPLC-MS/MS (AUF-HPLC-MS/MS) of WE-P with Top I. Particulars: relative binding strength = Aactive/Asample × 100%; peak in WE-P; n = 3. The procedure:
as §1, §2

A further series concerns Top II. As to the kind of experiment: Affinity ultrafiltration HPLC-MS/MS (AUF-HPLC-MS/MS) of WE-P with Top II. Particulars: relative binding strength = Aactive/Asample × 100%; peak in WE-P; n = 3. As for the experimental part: as §1, §2
Series [1] concerns Hela cells. The series is described as follows: Cell proliferative assay (SRB), Hela. The series is classed as cell-based. The following applies: Homo sapiens, 48 h, read-out: Anti-proliferative IC50, Hela cells. The procedure: (§3) Human non-small cell lung adenocarcinoma cell line (A549) and human cervical cancer cell line (Hela) were obtained from the American Type Culture Collection (ATCC, Manassas, VA, USA) and maintained in Ham’s F-12K medium supplemented with 10% fetal bovine serum (FBS), 1% penicillin, and 1% streptomycin in a cell incubator under humidified conditions with 5% CO2 at 37 °C, and the procedures were slightly modified from previous method. To evaluate the proliferative activity of A549 cell line and Hela cell line, the SRB assay was carried out according to the manufacturer’s instructions (Beyotime, Shanghai, China). Briefly, these two cell lines were seeded into 96-well plates at a density of 1.0 × 10^4 per well. After 24 h incubation, the tested samples were dissolved in the DMSO and sequentially diluted with cell culture medium and added to each well at the specified concentrations. Cell viability was assessed by SRB 48 h later. Absorbances was measured by a Tecan microplate reader (Tecan Infinite M200 Pro, Tecan Group Ltd., Männedorf, Switzerland) at a wavelength of 540 nm. The experiments were performed in triplicate. The anti-proliferative activities were expressed as IC50. […] The data were expressed as mean ± standard deviation (SD) of three replicates.

For series [2], the system named is A549 cells. As to the kind of experiment: Cell proliferative assay (SRB), A549. The series is classed as cell-based. The following applies: Homo sapiens, 48 h, read-out: Anti-proliferative IC50, A549 cells. As for the experimental part:
as §3

Series [3] has as its target T2, COX-2 (Homo sapiens, UniProt P35354).
T2 sequence (P35354 18-604): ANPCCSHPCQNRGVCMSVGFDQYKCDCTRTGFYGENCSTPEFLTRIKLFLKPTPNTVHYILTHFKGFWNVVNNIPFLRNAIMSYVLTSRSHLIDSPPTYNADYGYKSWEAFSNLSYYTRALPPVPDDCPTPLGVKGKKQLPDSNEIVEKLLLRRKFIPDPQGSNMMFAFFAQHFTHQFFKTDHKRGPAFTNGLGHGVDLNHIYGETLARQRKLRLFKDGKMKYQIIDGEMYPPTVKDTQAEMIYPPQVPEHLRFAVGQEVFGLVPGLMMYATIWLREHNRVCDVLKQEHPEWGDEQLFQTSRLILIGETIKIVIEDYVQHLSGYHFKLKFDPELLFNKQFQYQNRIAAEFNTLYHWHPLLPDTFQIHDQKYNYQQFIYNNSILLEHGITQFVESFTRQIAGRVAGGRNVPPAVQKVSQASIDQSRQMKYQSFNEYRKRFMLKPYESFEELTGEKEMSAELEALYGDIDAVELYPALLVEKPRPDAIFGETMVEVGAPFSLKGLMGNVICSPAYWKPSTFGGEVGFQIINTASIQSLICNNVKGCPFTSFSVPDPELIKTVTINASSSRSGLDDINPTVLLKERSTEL
As to the kind of experiment: In vitro COX-2 inhibitory assay (COX-2 (human) inhibitor screening assay kit, fluorescence). Also noted: purchased Beyotime Biotechnology (Shanghai, China) S0168. In kind it is biochemical. The following applies: triplicate; read-out: COX-2 inhibition IC50 (isolated compounds). The procedure: Thirdly, 10 µL COX-2 probe was added into each well. […] The experiments were performed in triplicate.

Series [4] has as its target T2, COX-2. The series is described as follows: Affinity ultrafiltration HPLC-MS/MS (AUF-HPLC-MS/MS) of WE-P with COX-2. Set-up: purchased Wuhan Antgene Biotechnology Co., Ltd. (Wuhan, China). Particulars: relative binding strength = Aactive/Asample × 100%; peak in WE-P; n = 3. The procedure:
as §1, §2

The subject of series [5] is human peripheral blood mononuclear cells (PBMCs) stimulated by lipopolysaccharide (LPS). Also noted: method as in PMID 32877711. Particulars: 100 µM; cited from earlier work.
The test system of the next series is RAW 264.7 cell line. Also noted: method as in doi:10.1016/j.phytol.2019.01.020. Particulars: LPS-stimulated RAW 264.7; read-out: Inhibition of NO production IC50; cited from earlier work.
For series [6], the system named is Hela cells. Also noted: method as in PMID 33301798. The following applies: previous study; read-out: Anti-proliferative IC50, Hela cells; cited from earlier work.
For series [7], the system named is human mammary adenocarcinoma (MCF-7) cells. Also noted: method as in PMID 33301798. Particulars: previous study; read-out: Anti-proliferative IC50, MCF-7 cells; cited from earlier work.
In series [8] the test system is A549 cells. Set-up: method as in PMID 33301798. The following applies: previous study; read-out: Anti-proliferative IC50, A549 cells; cited from earlier work.
For a further series, the system named is Hela cell line. Also noted: method as in PMID 32212861. The following applies: previous study; cited from earlier work.
Series [9] concerns LNCaP human prostate cancer cell. Set-up: method as in PMID 11858758. Particulars: previous study; cited from earlier work.
Another series relates to MCF-7. Also noted: method as in PMID 27504537. The following applies: 72 h; read-out: GI50 (the 50% growth inhibition in 72 h), MCF-7; cited from earlier work.
Series [10] has as its system human prostate cancer (PC-3) cells. Also noted: method as in PMID 27504537. Particulars: 72 h; read-out: GI50 (the 50% growth inhibition in 72 h), PC-3; cited from earlier work.
The test system of series [11] is human colorectal adenocarcinoma (Caco-2) cells. Also noted: method as in PMID 27504537. The following applies: inactive or poorly active; cited from earlier work.

With `COc1cc(C2Oc3c(OC)cc(/C=C\C(=O)NCCc4ccc(O)cc4)cc3C2C(=O)NCCc2ccc(O)cc2)ccc1O` (stereo not drawn) [Compound 1, N-cis-grossamide], at 5-LOX, the “UF-RBS (%) 5-LOX” value is given as 16.74 ± 0.65%. Moreover, the “UF-RBS (%) Top I” value in the series with Top I is listed as 34.25 ± 2.81%. Moreover, the “UF-RBS (%) Top II” value in the series on Top II amounted to 24.53 ± 1.54%. The IC50 in the series with Hela cells [1] was 84.4 ± 1.79 µM; in the series on A549 cells [2], greater than 100 µM; on COX-2 [3], 4.41 ± 0.249 µM. Moreover, the “UF-RBS (%) COX-2” value on COX-2 [4] is 20.15 ± 0.12%.

As for `COc1cc(C2Oc3c(OC)cc(/C=C/C(=O)NCCc4ccc(O)cc4)cc3C2C(=O)NCCc2ccc(O)cc2)ccc1O` (stereo not drawn) [Compound 2, N-trans-grossamide], at 5-LOX, the “UF-RBS (%) 5-LOX” value was 42.00 ± 1.26%. Moreover, the “UF-RBS (%) Top I” value with Top I was found to be 76.2 ± 5.20%. Also, the “UF-RBS (%) Top II” value with Top II is given as 58.57 ± 3.82%. The half-maximal inhibitory concentration (IC50) is 72.8 ± 0.839 µM in the series with Hela cells [1]; greater than 100 µM with A549 cells [2]; 52.5 ± 6.1 µM in the series with RAW 264.7 cell line; 20.1 ± 3.05 µM in the series with Hela cells [6]; 11.4 ± 1.62 µM in [7]; 13.5 ± 3.66 µM in the series on A549 cells [8]. On COX-2 [3], the IC50 turned out to be 1.95 ± 0.381 µM. Moreover, in [5], the “Release of GM-CSF” value is given as 1.61 % of LPS control. In series [5], the “Release of IL-1β” value is reported as 2.14 % of LPS control. Besides, the “Release of IL-2” value in [5] is recorded as 11.61 % of LPS control. In addition, the “Release of TNF-α” value in series [5] is reported as 0.06 % of LPS control. In addition, in the series with Hela cell line, the “Anti-proliferative activity on Hela cell line” value was “moderate anti-proliferative activity”. Also, the “Cytotoxicity in cultured LNCaP cells” value in series [9] is given as “moderate cytotoxicity”. Moreover, the 50% growth inhibitory concentration (GI50) in the series on MCF-7 is 24 µM; in series [10], 21 µM; in series [11], greater than 100 µM. For the same molecule, on COX-2 [4], the “UF-RBS (%) COX-2” value is listed as 27.39 ± 1.58%.

A word on the IC50: it is the concentration needed to halve the response being measured. For orientation: GI50 means the concentration giving 50% growth inhibition.
